Reference: patent publication US6525001B1, “Substituted pyrimidine and pyridine herbicides” (Mid-American Commercialization Corporation, priority 1997, dated 2003)

Legend:
Type in all cases: in vivo
Design in all cases: key: 0 is no effect; 10 is complete control
[1] = system: duck salad (Heteranthera limosa); assay: Test B flood test
Procedure, shortened: (§1)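 Read-out is a visual response score from 0 (no effect) to 10 (complete control), assigned by comparison with untreated controls. Treatment was applied at the 2-leaf stage, and plants stayed in the greenhouse for twelve to sixteen days before scoring.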

[2] = system: smallflower flatsedge (Cyperus difformis); assay: Test B flood test
Procedure, shortened: as §1

rice (Oryza sativa) = assay: Test B flood test
Procedure, shortened: as §1

[3] = system: bamyardgrass (Echinochloa crus-galli); assay: Test B flood test
Procedure, shortened: as §1

corn (Zea mays) = assay: Test B pre-/postemergence; conditions: for Corn plant response rating: Preemergence
Procedure, shortened: (§2)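 Compounds in a surfactant-containing, non-phytotoxic solvent blend are applied to freshly planted seed (preemergence) and, concurrently, to seedlings of 2 to 18 cm at 1–4 leaves (postemergence). Plants stay in the greenhouse twelve to sixteen days and are then scored visually from 0 (no effect) to 10 (complete control).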

[4] = system: cocklebur (Xanthium strumarium); assay: Test B pre-/postemergence; conditions: for Cocklebur plant response rating: Preemergence
Procedure, shortened: as §2

[5] = system: crabgrass (Digitaria sanguinalis); assay: Test B pre-/postemergence; conditions: for Crabgrass plant response rating: Preemergence
Procedure, shortened: as §2

[6] = system: pigweed (Amaranthus retroflexus); assay: Test B pre-/postemergence
Procedure, shortened: as §2

[7] = system: momingglory (Ipomoea hederacea); assay: Test B pre-/postemergence
Procedure, shortened: as §2

[8] = system: bedstraw (Galium aparine); assay: Test B pre-/postemergence; conditions: for Bedstraw plant response rating: Preemergence
Procedure, shortened: as §2

[9] = system: blackgrass (Alopecurus myosuroides); assay: Test B pre-/postemergence; conditions: for Blackgrass plant response rating: Preemergence
Procedure, shortened: as §2

[10] = system: sugar beet (Beta vulgaris); assay: Test B pre-/postemergence
Procedure, shortened: as §2

soybean (Glycine max) = assay: Test B pre-/postemergence
Procedure, shortened: as §2

[11] = system: giant foxtail (Setaria faberii); assay: Test B pre-/postemergence
Procedure, shortened: as §2

[12] = system: broadleaf signalgrass (Brachiaria decumbens); assay: Test B pre-/postemergence; conditions: for B. signalgrass plant response rating: Preemergence
Procedure, shortened: as §2

wild oat (Avena fatua) = assay: Test B pre-/postemergence
Procedure, shortened: as §2

[13] = system: purple nutsedge (Cyperus rotundus); assay: Test B pre-/postemergence
Procedure, shortened: as §2

[14] = system: wheat (Triticum aestivum); assay: Test B pre-/postemergence
Procedure, shortened: as §2

rape (Brassica napus) = assay: Test B pre-/postemergence
Procedure, shortened: as §2

[15] = system: velvetleaf (Abutilon theophrasti); assay: Test B pre-/postemergence
Procedure, shortened: as §2

[16] = Rate 62 g/ha, Postemergence (flood test)
[17] = Rate 125 g/ha, Postemergence, flood test
[18] = Rate 250 g/ha, Postemergence (flood test species)
[19] = Rate 125 g/ha, Postemergence section (flood test species)
[20] = Rate 250 g/ha, Postemergence (so in the source)

Cc1cnc(-c2ccc(F)cc2F)nc1Cc1cccc(C#N)c1 [Compound 34]
Plant response rating, Ducksalad [1, 16]: 0
Plant response rating, Ducksalad [1, 17]: 0
Plant response rating, Ducksalad [1, 18]: 0
Plant response rating, S. Flatsedge [2, 16]: 2
S. Flatsedge plant response rating [2, 19]: 2
Plant response rating, S. Flatsedge [2, 18]: 3
Plant response rating, Rice (rice (Oryza sativa); [16]): 1
Rice plant response rating (rice (Oryza sativa); [19]): 1
Plant response rating, Rice (rice (Oryza sativa); [18]): 1
Plant response rating, Barnyardgrass [3, 16]: 0
Plant response rating, Barnyardgrass [3, 17]: 0
Plant response rating, Barnyardgrass [3, 18]: 1
Plant response rating, Corn (corn (Zea mays); Rate 62 g/ha, Postemergence): 1
Corn plant response rating (corn (Zea mays); Rate 62 g/ha): 0
Plant response rating, Corn (corn (Zea mays); Rate 125 g/ha, Postemergence): 1
Corn plant response rating (corn (Zea mays); Rate 125 g/ha): 0
Plant response rating, Corn (corn (Zea mays); Rate 250 g/ha, Postemergence): 1
Plant response rating, Corn (corn (Zea mays); [20]): 0
Plant response rating, Cocklebur ([4]; Rate 62 g/ha, Postemergence): 2
Cocklebur plant response rating ([4]; Rate 62 g/ha): 0
Plant response rating, Cocklebur ([4]; Rate 125 g/ha, Postemergence): 2
Cocklebur plant response rating ([4]; Rate 125 g/ha): 0
Plant response rating, Cocklebur ([4]; Rate 250 g/ha, Postemergence): 8
Plant response rating, Cocklebur [4, 20]: 0
Plant response rating, Crabgrass ([5]; Rate 62 g/ha, Postemergence): 0
Crabgrass plant response rating ([5]; Rate 62 g/ha): 0
Plant response rating, Crabgrass ([5]; Rate 125 g/ha, Postemergence): 1
Crabgrass plant response rating ([5]; Rate 125 g/ha): 0
Plant response rating, Crabgrass ([5]; Rate 250 g/ha, Postemergence): 1
Plant response rating, Crabgrass [5, 20]: 1
Plant response rating, Redroot pigweed ([6]; Rate 62 g/ha, Postemergence): 1
Redroot pigweed plant response rating ([6]; Rate 62 g/ha, Preemergence): 0
Redroot pigweed plant response rating ([6]; Rate 125 g/ha, Postemergence): 3
Redroot pigweed plant response rating ([6]; Rate 125 g/ha, Preemergence): 0
Plant response rating, Redroot pigweed ([6]; Rate 250 g/ha, Postemergence): 6
Plant response rating, Redroot pigweed [6, 20]: 2
Plant response rating, Morningglory ([7]; Rate 62 g/ha, Postemergence): 1
Morningglory plant response rating ([7]; Rate 62 g/ha, Preemergence): 0
Morningglory plant response rating ([7]; Rate 125 g/ha, Postemergence): 1
Morningglory plant response rating ([7]; Rate 125 g/ha, Preemergence): 0
Plant response rating, Morningglory ([7]; Rate 250 g/ha, Postemergence): 2
Plant response rating, Morningglory [7, 20]: 0
Plant response rating, Bedstraw ([8]; Rate 62 g/ha, Postemergence): 2
Bedstraw plant response rating ([8]; Rate 62 g/ha): 0
Plant response rating, Bedstraw ([8]; Rate 125 g/ha, Postemergence): 3
Bedstraw plant response rating ([8]; Rate 125 g/ha): 0
Plant response rating, Bedstraw ([8]; Rate 250 g/ha, Postemergence): 7
Plant response rating, Bedstraw [8, 20]: 0
Plant response rating, Blackgrass ([9]; Rate 62 g/ha, Postemergence): 0
Blackgrass plant response rating ([9]; Rate 62 g/ha): 0
Plant response rating, Blackgrass ([9]; Rate 125 g/ha, Postemergence): 1
Blackgrass plant response rating ([9]; Rate 125 g/ha): 0
Plant response rating, Blackgrass ([9]; Rate 250 g/ha, Postemergence): 1
Plant response rating, Blackgrass [9, 20]: 0
Plant response rating, Sugarbeets ([10]; Rate 62 g/ha, Postemergence): 8
Sugarbeets plant response rating ([10]; Rate 62 g/ha, Preemergence): 0
Sugarbeets plant response rating ([10]; Rate 125 g/ha, Postemergence): 8
Plant response rating, Sugarbeets ([10]; Rate 125 g/ha, Preemergence): 0
Plant response rating, Sugarbeets ([10]; Rate 250 g/ha, Postemergence): 9
Plant response rating, Sugarbeets [10, 20]: 0
Plant response rating, Soybean (soybean (Glycine max); Rate 62 g/ha, Postemergence): 1
Soybean plant response rating (soybean (Glycine max); Rate 62 g/ha, Preemergence): 0
Soybean plant response rating (soybean (Glycine max); Rate 125 g/ha, Postemergence): 2
Plant response rating, Soybean (soybean (Glycine max); Rate 125 g/ha, Preemergence): 0
Plant response rating, Soybean (soybean (Glycine max); Rate 250 g/ha, Postemergence): 2
Plant response rating, Soybean (soybean (Glycine max); [20]): 0
Plant response rating, Giant foxtail ([11]; Rate 62 g/ha, Postemergence): 0
Giant foxtail plant response rating ([11]; Rate 62 g/ha, Preemergence): 0
Giant foxtail plant response rating ([11]; Rate 125 g/ha, Postemergence): 1
Giant foxtail plant response rating ([11]; Rate 125 g/ha, Preemergence): 0
Plant response rating, Giant foxtail ([11]; Rate 250 g/ha, Postemergence): 1
Plant response rating, Giant foxtail [11, 20]: 1
Plant response rating, B. signalgrass ([12]; Rate 62 g/ha, Postemergence): 1
B. signalgrass plant response rating ([12]; Rate 62 g/ha): 0
Plant response rating, B. signalgrass ([12]; Rate 125 g/ha, Postemergence): 1
B. signalgrass plant response rating ([12]; Rate 125 g/ha): 0
Plant response rating, B. signalgrass ([12]; Rate 250 g/ha, Postemergence): 1
Plant response rating, B. signalgrass ([12]; Rate 250 g/ha, Postemergence as printed in head r139 (second section for compounds 26-50)): 1
Wild oats plant response rating (wild oat (Avena fatua); Rate 62 g/ha, Postemergence): 0
Wild oats plant response rating (wild oat (Avena fatua); Rate 62 g/ha, Preemergence): 0
Wild oats plant response rating (wild oat (Avena fatua); Rate 125 g/ha, Postemergence): 1
Plant response rating, Wild oats (wild oat (Avena fatua); Rate 125 g/ha, Preemergence): 0
Plant response rating, Wild oats (wild oat (Avena fatua); Rate 250 g/ha, Postemergence): 2
Plant response rating, Wild oats (wild oat (Avena fatua); [20]): 0
Plant response rating, Nutsedge ([13]; Rate 62 g/ha, Postemergence): 0
Nutsedge plant response rating ([13]; Rate 62 g/ha, Preemergence): 0
Nutsedge plant response rating ([13]; Rate 125 g/ha, Postemergence): 0
Nutsedge plant response rating ([13]; Rate 125 g/ha, Preemergence): 0
Plant response rating, Nutsedge ([13]; Rate 250 g/ha, Postemergence): 0
Plant response rating, Nutsedge [13, 20]: 0
Wheat plant response rating ([14]; Rate 62 g/ha, Postemergence): 0
Wheat plant response rating ([14]; Rate 62 g/ha, Preemergence): 0
Wheat plant response rating ([14]; Rate 125 g/ha, Postemergence): 1
Plant response rating, Wheat ([14]; Rate 125 g/ha, Preemergence): 0
Plant response rating, Wheat ([14]; Rate 250 g/ha, Postemergence): 1
Plant response rating, Wheat [14, 20]: 0
Plant response rating, Rape (rape (Brassica napus); Rate 62 g/ha, Postemergence): 2
Rape plant response rating (rape (Brassica napus); Rate 62 g/ha, Preemergence): 0
Rape plant response rating (rape (Brassica napus); Rate 125 g/ha, Postemergence): 3
Rape plant response rating (rape (Brassica napus); Rate 125 g/ha, Preemergence): 0
Plant response rating, Rape (rape (Brassica napus); Rate 250 g/ha, Postemergence): 3
Plant response rating, Rape (rape (Brassica napus); [20]): 0
Plant response rating, Velvetleaf ([15]; Rate 62 g/ha, Postemergence): 1
Velvetleaf plant response rating ([15]; Rate 62 g/ha, Preemergence): 0
Velvetleaf plant response rating ([15]; Rate 125 g/ha, Postemergence): 1
Plant response rating, Velvetleaf ([15]; Rate 125 g/ha, Preemergence): 0
Plant response rating, Velvetleaf ([15]; Rate 250 g/ha, Postemergence): 1
Plant response rating, Velvetleaf [15, 20]: 0
